According to article PMC6018746, “Activation of the p53-MDM4 regulatory axis defines the anti-tumour response to PRMT5 inhibition through its role in regulating cellular splicing” (Scientific Reports, 2018):
“And” between values parts separate entries of the source, which are not always exact repeats. Equal values may be shown once. Read-outs that look alike come from different tables or passages of the source.

System: panel of hematologic and solid cancer lines
Test: 6-day in vitro growth/death assay
Assay type: cell-based, human
Details: for IC50: read-out: gIC50
Method: To further develop these molecules and to guide clinical strategy, it was necessary to understand sensitivity in preclinical models by assessing the anti-tumour activity of the PRMT5 inhibitors in various cancers.
Cell lines were obtained from ATCC or DSMZ and were grown in recommended medium, which was most frequently RPMI-1640 containing 10% FBS. Cell line proliferation assays, Western blotting, qRT-PCR, and cell cycle analyses were performed as described previously[27],[28]. Antibody and gene expression reagents are as described in Supplementary Table 16. All studies were conducted in accordance with the GSK Policy on the Care, Welfare and Treatment of Laboratory Animals and were reviewed by the Institutional Animal Care and Use Committee either at GSK or by the ethical review process at the institution where the work was performed. Detailed descriptions of all methods can be found in the Supplemental Materials.

CC(=O)N1CCC(Nc2cc(C(=O)NC[C@H](O)CN3CCc4ccccc4C3)ncn2)CC1 [GSK3326595]
IC50 5637: 69 nM | IC50 (HCC70): 130 nM | IC50 (HCC1143): 246 nM | IC50 (HCC1806): 98 nM | IC50 (Homo sapiens, 5637): 69.3 nM | IC50 (Homo sapiens, HCC70, HCC70): 130 nM | IC50 (Homo sapiens, HCC1143, HCC1143): 246 nM | IC50 (Homo sapiens, HCC1806, HCC1806): 97.6 nM | IC50 (Homo sapiens, HCC1954, HCC1954): 79.2 nM | IC50 (Homo sapiens, HT-1376, HT-1376): 17600 nM | IC50 (Homo sapiens, J82, J82): 29300 nM | IC50 (Homo sapiens, JM1, JM1): 79 nM | IC50 (Homo sapiens, KMS-11, KMS-11): 66.5 nM | IC50 (Homo sapiens, LN-229, LN-229): 254 nM | IC50 (Homo sapiens, LP-1, LP1): 1940 nM | IC50 (Homo sapiens, MCF7, MCF-7): 61.7 nM | IC50 (Homo sapiens, MDA-MB-231, MDA-MB-231): 544 nM | IC50 (Homo sapiens, MDA-MB-453, MDA-MB-453): 28.7 nM | IC50 (Homo sapiens, MDA-MB-468, MDA-MB-468): 56.5 nM | IC50 (Homo sapiens, MINO): 130 nM | IC50 (Homo sapiens, Maver1, MAVER-1): 84.9 nM | IC50 (Homo sapiens, NCI-H526, NCI-H526): 275 nM | IC50 (Homo sapiens, NCI-H526-R): 344 nM | IC50 (Homo sapiens, NU-DHL-1, NU-DHL-1): 333 nM | IC50 (Homo sapiens, NU-DUL-1, NU-DUL-1): 333 nM | IC50 (Homo sapiens, PER-403, PER-403): 38.3 nM | IC50 (Homo sapiens, PER-624): 524 nM | IC50 (Homo sapiens, PER-704): 658 nM | IC50 (Homo sapiens, Pfeiffer): 421 nM | IC50 (Homo sapiens, RCK8, RCK8): 529 nM | IC50 (Homo sapiens, RL): 11.8 nM | IC50 (Homo sapiens, RPMI-8226, RPMI-8226): 21.7 nM | IC50 (Homo sapiens, RPMI-8226-DOX): 29300 nM | IC50 (Homo sapiens, RPMI-8226-LR5): 286 nM | IC50 (Homo sapiens, SCaBER): 198 nM | IC50 (Homo sapiens, SF-295, SF295): 24700 nM | IC50 (Homo sapiens, SF-539, SF539): 60.9 nM | IC50 (Homo sapiens, SK-BR-3, SK-BR-3): 73.1 nM | IC50 (Homo sapiens, SU-DHL10, SU-DHL-10): 36.7 nM | IC50 (Homo sapiens, SU-DHL-2, SU-DHL-2): 34.1 nM | IC50 (Homo sapiens, SU-DHL-4, SU-DHL-4): 492 nM | IC50 (Homo sapiens, SU-DHL-5, SU-DHL-5): 28.3 nM | IC50 (Homo sapiens, SU-DHL-6, SU-DHL-6): 3.9 nM | IC50 (Homo sapiens, SU-DHL-8, SU-DHL-8): 52.5 nM | IC50 (Homo sapiens, SU-DHL-16, SU-DHL-16): 98.9 nM | IC50 (Homo sapiens, SW780, SW-780): 290 nM | IC50 (Homo sapiens, T-24, T24): 765 nM | IC50 (Homo sapiens, U2932, U2932): 52.5 nM | IC50 (Homo sapiens, U-87 MG): 39.6 nM | IC50 (Homo sapiens, U-2940, U2940): 14800 nM | IC50 (Homo sapiens, UMUC3, UM-UC-3): 29300 nM | IC50 (Homo sapiens, WSU-NHL): 8.4 nM | IC50 (Homo sapiens, WSUDLCL2, WSU-DLCL2): 81.7 nM | IC50 (Homo sapiens, ZR-75-1, ZR-75-1): 11000 nM | IC50 (J82): 29300 nM | IC50 (KMS-11): 66 nM | IC50 (LN-229): 254 nM | IC50 (LP1): 1940 nM | IC50 (MAVER-1): 85 nM | IC50 (MDA-MB-231): 544 nM | IC50 (MDA-MB-453): 29 nM | IC50 (MDA-MB-468): 57 nM | IC50 (MINO): 130 nM and > 100 nM | IC50 (NCI-H526-R): 344 nM | IC50 (NCI-H526): 275 nM | IC50 (PER-403): 38 nM | IC50 (PER-624): 524 nM | IC50 (PER-704): 658 nM | IC50 (RCK8): 529 nM | IC50 (RL): 14 nM | IC50 (SF295): 24700 nM | IC50 (SF539): 61 nM | IC50 (SK-BR-3): 73 nM | IC50 (SU-DHL-2): 28 nM | IC50 (SU-DHL-4): 492 nM | IC50 (SU-DHL-6): 4 nM | IC50 (SU-DHL-8): 53 nM | IC50 (SU-DHL-10): 54 nM | IC50 (SU-DHL-16): 99 nM | IC50 (ScaBER): 198 nM | IC50 (T24): 765 nM | IC50 (U2932): 53 nM | IC50 (U2940): 10200 nM | IC50 (U-87MG): 40 nM | IC50 (WSU-DLCL2): 82 nM | IC50 (WSU-NHL): 8 nM | gIC100 (Z-138): 80.7 nM
